Data published in paper PMC12406253, “Exploration of the Neuromodulatory Properties of Fyn and GSK-3β Kinases Exploiting 7‑Azaindole-Based Inhibitors” (Journal of Medicinal Chemistry, 2025).
Where a name gives a salt, the structure may show the parent alone.

Key:
FYNα = FYNα (Homo sapiens, UniProt P06241); assay: FYNα kinase assay, LANCE Ultra TR-FRET; type: biochemical; settings: for inhibition at 50 µM / Fyn % Inhibition @ 50 μM: mean ± SD, n.i. = no inhibition; for inhibition at 50 µM: read-out: Fyn % Inhibition @ 50 μM; for IC50: mean ± SD of at least three independent determinations, ATP near Km, read-out: Fyn IC50
Procedure: (§1) GSK-3β and FYNα kinase assays were run in 384-well microplates (OptiPlate-384, White, PerkinElmer) in a total reaction volume of 20 μL. The inhibitory potency against human recombinant GSK-3β and FYNα (Carna Biosciences) was evaluated using the LANCE Ultra (PerkinElmer) time-resolved fluorescence resonance energy transfer (TR-FRET) by measuring the phosphorylation of the ULight-labeled substrate, according to the manufacturer’s instructions. The synthetic peptide surrounding Ser641 of human muscle glycogen synthase (ULight-GS (Ser641/pSer657)) and the synthetic 28-amino acid peptide containing eight Tyr residues placed in different amino acid contexts (ULightTM-TK (PT66)) were selected as specific substrates for GSK-3β and FYNα, respectively. Briefly, test compounds and staurosporine (reference compound) or DMSO (control) are mixed with the enzyme (GSK-3β: 2 nM and FYNα: 1 nM) in a buffer containing 50 mM HEPES (pH 7.5), 1 mM EGTA, 10 mM MgCl2, 2 mM DTT, and 0.01% Tween-20. […] Following incubation, the reaction is stopped by adding 6 mM EDTA. After 5 min, the antiphospho antibody labeled with europium chelate is added. After 1 more hour, the kinase reaction is monitored by irradiation at 320 nm and the fluorescence measured at 615 and 665 nm, using EnVision 2014 Multilabel Reader (PerkinElmer). The calculated signal ratio at 665/615 nm is proportional to the extent of ULight-substrate phosphorylation. The compounds were tested at 11 different concentrations ranging from 3 nM up to 100 μM in triplicate. […] The results were expressed as a percent inhibition of the control enzyme activity.
Dose–response curves were run in at least three independent experiments, performed in three technical replicates. IC50 values (concentrations causing half-maximal enzyme inhibition) were determined by nonlinear regression analysis of the Log[concentration]/response curves generated with mean replicate values using a four parameter Hill equation curve fitting with GraphPad Prism 8 (GraphPad Software Inc., CA-USA).

human recombinant GSK-3β = human recombinant GSK-3β (Homo sapiens, UniProt P49841); assay: GSK-3β kinase assay, LANCE Ultra TR-FRET; type: biochemical; settings: for inhibition at 50 µM / GSK-3β % Inhibition @ 50 μM: mean ± SD, n.i. = no inhibition; for IC50: mean ± SD of at least three independent determinations, ATP near Km
Procedure: as §1, with “manufacturer's” for “manufacturer’s”, “The synthetic peptide surrounding Ser641 of human muscle glycogen synthase (ULight-GS (Ser641/pSer657)) and the synthetic 28-amino acid peptide containing eight Tyr residues placed in different amino acid contexts (ULightTM-TK (PT66)) were selected as specific substrates for GSK-3β and FYNα, respectively.” left out, “activity. Dose-response curves were run in at least three independent experiments, performed in three technical replicates. IC50 values (concentrations causing half-maximal enzyme inhibition) were determined by nonlinear regression analysis of the Log[concentration]/response curves generated with mean replicate values using a four parameter Hill equation curve fitting with GraphPad Prism 8 (GraphPad Software Inc., CA-USA).” for “activity.”

[1] = tested on: neurospheres (NPCs from the subventricular zone); assay: Neurosphere growth analysis (NPC proliferation); type: cell-based, mice; settings: 0.1, 1, and 5 μM; 7 days
Procedure: Based on that, we further investigated the neurogenic and differentiation potential of our kinase inhibitors in cell culture of neurospheres, which are floating pools of NPCs coming from the subventricular zone (SVZ) of six-month-old mice. Particularly, we first analyzed the variation, during 7 days, in number and size of neurosphere population with and without treatment.
To investigate the effect of compounds of interest in neurospheres’ growth rate, single spheres were plated in suspension in 96-well plates (5 × 10^3 cells/well) in the presence of compounds (0.1 μM, 1 μM, and 5 μM) in complete DMEM F-12 culture medium. One image/well was acquired every day by using the Sartorius Incucyte Live-Cell Analysis System and evaluated through the Brightfield Spheroid Analysis Software Module. Only aggregates with areas larger than 400 μm^2 were considered for statistical analysis.

[2] = tested on: immortalized murine microglia N9; assay: Immunomodulation in LPS-treated N9 microglia, Western blot of iNOS and TREM2; settings: 2.5 and 5 μM; 100 ng/mL LPS, 24 h
Procedure: To gain a conclusive answer on the potential role of these kinase inhibitors in counteracting neuroinflammatory processes, after the verified induced astrocytic polarization, the ability of selected compounds to modulate inflammatory response was analyzed by favoring the immunomodulatory switch from neurotoxic M1 phenotype of microglia to phagocytic and neuroprotective M2 phenotype, evaluating inducible nitric oxide synthase (iNOS) and TREM2 as M1 and M2 markers (Figure ).
The microglial phenotype was evaluated through Western blot analysis of the pro-inflammatory iNOS and anti-inflammatory-TREM2 markers.

[3] = tested on: primary rat cerebellar granule neurons (CGNs); assay: Neurotoxicity, cell viability in CGNs (MTT); type: cell-based; settings: 5, 10, and 25 μM, 24 h
Procedure: A preliminary cell viability assessment was conducted in primary rat cerebellar granule neurons (CGNs), which are considered a reliable model for studying cellular and molecular mechanisms of survival/apoptosis and neurodegeneration/neuroprotection.
Primary cerebellar granule cells were dissociated from cerebella and plated on 96-well plates, previously coated with 10 μg/mL poly-L-lysine, at a density of 1.2 × 10^5 cells/0.2 mL medium/well in BME supplemented with 10% heat-inactivated FBS (Life Technologies), 2 mmol/L glutamine, 100 μmol/L gentamicin sulfate, and 25 mM KCl (all from Sigma-Aldrich). Sixteen hours later, 10 μM cytosine arabinofuranoside (Sigma-Aldrich) was added to avoid glial proliferation. After 7 days in vitro, differentiated neurons were shifted to serum-free BME medium and exposed to increasing concentrations (5 μM, 10 μM, 25 μM) of compounds of interest for 24 h. Then, cell viability was evaluated through the MTT assay.
For MTT assay, thiazolyl blue was added to the culture medium at a final concentration of 0.1 mg/mL. Following a 20 min incubation at 37 °C in the dark, the MTT precipitate was dissolved in 0.1 M Tris–HCl pH 7.5 buffer containing 5% Triton X-100 (all from Sigma-Aldrich) and absorbance was read at 570 nm in a microplate spectrophotometric reader (Bio-Rad).

Chain of FYNα (P06241 whole entry): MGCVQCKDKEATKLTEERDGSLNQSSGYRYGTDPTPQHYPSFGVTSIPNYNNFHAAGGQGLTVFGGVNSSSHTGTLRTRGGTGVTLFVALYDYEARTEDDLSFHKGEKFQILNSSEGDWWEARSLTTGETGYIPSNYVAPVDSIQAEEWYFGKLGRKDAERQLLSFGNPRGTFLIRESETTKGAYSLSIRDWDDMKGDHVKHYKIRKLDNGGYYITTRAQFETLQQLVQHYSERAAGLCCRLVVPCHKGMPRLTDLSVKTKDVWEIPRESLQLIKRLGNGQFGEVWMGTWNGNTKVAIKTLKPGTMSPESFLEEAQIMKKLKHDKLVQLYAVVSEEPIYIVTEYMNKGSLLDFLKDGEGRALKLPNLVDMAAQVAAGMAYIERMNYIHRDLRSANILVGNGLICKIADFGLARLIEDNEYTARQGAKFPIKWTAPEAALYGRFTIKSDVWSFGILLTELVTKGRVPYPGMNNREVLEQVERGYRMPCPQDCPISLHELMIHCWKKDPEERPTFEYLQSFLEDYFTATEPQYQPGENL
Chain of human recombinant GSK-3β (P49841 whole entry): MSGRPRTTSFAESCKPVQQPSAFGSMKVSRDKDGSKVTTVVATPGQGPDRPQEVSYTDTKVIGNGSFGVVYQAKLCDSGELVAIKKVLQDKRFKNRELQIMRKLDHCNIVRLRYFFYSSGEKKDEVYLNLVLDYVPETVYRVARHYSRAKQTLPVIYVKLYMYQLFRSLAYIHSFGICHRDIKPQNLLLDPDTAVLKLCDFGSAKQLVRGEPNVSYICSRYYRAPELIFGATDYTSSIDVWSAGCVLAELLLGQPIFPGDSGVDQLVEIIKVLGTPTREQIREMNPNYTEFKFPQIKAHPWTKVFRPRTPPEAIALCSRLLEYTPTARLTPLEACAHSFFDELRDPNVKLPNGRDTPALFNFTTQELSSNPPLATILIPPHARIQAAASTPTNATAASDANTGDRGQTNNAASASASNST

Row | Compound | inhibition at 50 µM (human recombinant GSK-3β) [%] | Fyn % Inhibition @ 50 μM (FYNα) | also measured
1 | COCCNc1nc(-c2c[nH]c3ncccc23)cs1 [Compound 3, N-(2-Methoxyethyl)-4-(1H-pyrrolo[2,3-b]pyridin-3-yl)thiazol-2-amine Hydrobromide] | 58.8 |  | inhibition at 50 µM (FYNα): 41.7%
2 | Br.c1cnc2[nH]cc(-c3csc(NCc4ccncc4)n3)c2c1 [Compound 27, N-(Pyridin-4-ylmethyl)-4-(1H-pyrrolo[2,3-b]pyridin-3-yl)thiazol-2-amine Hydrobromide] |  |  | IC50 (FYNα): 3480 ± 680 nM; Neurosphere dimension (brightfield object total area), maturation [1]: noticeable maturation at days 6 and 7; Neurosphere number (object count per image), neurogenesis [1]: pronounced neurogenesis
3 | Br.CCCCNc1nc(-c2c[nH]c3ncccc23)cs1 [Compound 2, N-Butyl-4-(1H-pyrrolo[2,3-b]pyridin-3-yl)thiazol-2-amine Hydrobromide] | 54.9 | n.i. | 
4 | Nc1nc(-c2c[nH]c3ncccc23)cs1 [Compound I] |  |  | inhibition at 50 µM (FYNα): 47.2%; IC50 (human recombinant GSK-3β): 6.84 ± 0.17 µM
5 | Br.Cc1ccc(Nc2nc(-c3c[nH]c4ncccc34)cs2)cc1 [Compound 11, 4-(1H-Pyrrolo[2,3-b]pyridin-3-yl)-N-(p-tolyl)thiazol-2-amine Hydrobromide] | 50.1 | n.i. | 
6 | c1ccc(CCNc2nc(-c3c[nH]c4ncccc34)cs2)cc1 [Compound 31, N-Phenethyl-4-(1H-pyrrolo[2,3-b]pyridin-3-yl)thiazol-2-amine Hydrobromide] |  |  | IC50 (human recombinant GSK-3β): 7.5 ± 1.29 µM
7 | CNc1nc(-c2c[nH]c3ncccc23)cs1 [Compound 1, N-Methyl-4-(1H-pyrrolo[2,3-b]pyridin-3-yl)thiazol-2-amine Hydrobromide] | 65.8 |  | inhibition at 50 µM (FYNα): 22.3%
8 | Br.c1ccc(CNc2nc(-c3c[nH]c4ccccc34)cs2)cc1 [Compound 34] |  | n.i. | GSK-3β % Inhibition @ 50 μM (human recombinant GSK-3β): n.i.
9 | C=CCNc1nc(-c2c[nH]c3ncccc23)cs1 [Compound 4, N-Allyl-4-(1H-pyrrolo[2,3-b]pyridin-3-yl)thiazol-2-amine Hydrobromide] | 61.6 |  | inhibition at 50 µM (FYNα): 28.5%
10 | Br.COc1ccc(Nc2nc(-c3c[nH]c4ncccc34)cs2)cc1 [Compound 12, N-(4-Methoxyphenyl)-4-(1H-pyrrolo[2,3-b]pyridin-3-yl)thiazol-2-amine Hydrobromide] | 34.6 | n.i. | 
11 | Br.c1ccc2c(Nc3nc(-c4c[nH]c5ncccc45)cs3)cccc2c1 [Compound 8, N-(Naphthalen-1-yl)-4-(1H-pyrrolo[2,3-b]pyridin-3-yl)thiazol-2-amine Hydrobromide] | 5.1 | n.i. | 
12 | Br.Cc1sc(NCc2ccncc2)nc1-c1c[nH]c2ncccc12 [Compound 42, 5-Methyl-N-(pyridin-4-ylmethyl)-4-(1H-pyrrolo[2,3-b]pyridin-3-yl)thiazol-2-amine Hydrobromide] |  |  | IC50 (FYNα): 200 ± 20 nM; Neurosphere dimension (brightfield object total area), maturation [1]: premature increase in dimension
13 | Br.Clc1ccc(Nc2nc(-c3c[nH]c4ncccc34)cs2)cc1 [Compound 13, N-(4-Chlorophenyl)-4-(1H-pyrrolo[2,3-b]pyridin-3-yl)thiazol-2-amine Hydrobromide] | 14.8 | n.i. | 
14 | Cc1ccc(CNc2nc(-c3c[nH]c4ncccc34)cs2)cc1 [Compound 22, N-(4-Methylbenzyl)-4-(1H-pyrrolo[2,3-b]pyridin-3-yl)thiazol-2-amine Hydrobromide] |  |  | inhibition at 100 µM (human recombinant GSK-3β; read-out: GSK-3β percentage of inhibition at the highest dose tested (100 μM)): 77.1%
15 | Br.CN(C)c1ccc(CNc2nc(-c3c[nH]c4ncccc34)cs2)cc1 [Compound 26, N-(4-(Dimethylamino)benzyl)-4-(1H-pyrrolo[2,3-b]pyridin-3-yl)thiazol-2-amine Hydrobromide] |  | completely inactive | TREM2 expression (M2 marker) vs LPS [2]: no significant variations; Neurotoxicity on CGNs (cell viability compared to control) [3]: not neurotoxic; GSK-3β % Inhibition @ 50 μM (human recombinant GSK-3β): completely inactive
16 | Clc1ccccc1Nc1nc(-c2c[nH]c3ncccc23)cs1 [Compound 9, N-(2-Chlorophenyl)-4-(1H-pyrrolo[2,3-b]pyridin-3-yl)thiazol-2-amine Hydrobromide] | 32.7 |  | inhibition at 50 µM (FYNα): 55%
17 | Br.Cn1cc(-c2csc(NCc3ccccc3)n2)c2cccnc21 [Compound 35] | 9.8 | n.i. | 
18 | Br.O=[N+]([O-])c1ccc(Nc2nc(-c3c[nH]c4ncccc34)cs2)cc1 [Compound 14, N-(4-Nitrophenyl)-4-(1H-pyrrolo[2,3-b]pyridin-3-yl)thiazol-2-amine Hydrobromide] | 8 | n.i. | 
19 | c1ccc(Nc2nc(-c3c[nH]c4ncccc34)cs2)nc1 [Compound 10, N-(Pyridin-2-yl)-4-(1H-pyrrolo[2,3-b]pyridin-3-yl)thiazol-2-amine Hydrobromide] | 24.1 |  | inhibition at 50 µM (FYNα): 3.7%
20 | Br.c1cnc2[nH]cc(-c3csc(NC4CCCCC4)n3)c2c1 [Compound 5, N-Cyclohexyl-4-(1H-pyrrolo[2,3-b]pyridin-3-yl)thiazol-2-amine Hydrobromide] | 37.4 | n.i. | 
21 | Br.C=CCn1cc(-c2csc(NCc3ccccc3)n2)c2cccnc21 [Compound 36] | 4 | n.i. | 
